For 18 compounds, IC50 results are on record in US20020026051A1, “Dithiepino [6,5-b]pyridines, and related compositions and methods” (priority 1999, published 2002).

This assay concerns the target T1, calcium channel (Oryctolagus cuniculus, UniProt P15381).
T1 construct: from tissue; host or cells: rabbit heart membrane preparation
In words: Assay for Inhibition of Nitrendipine Binding (3H-nitrendipine, heart membranes). The settings on record: 3H-nitrendipine displacement, rabbit heart membranes; Tables 1-5. The protocol:
Female, New Zealand white rabbits (1-2 kg) are sacrificed by cervical dislocation, and the heart is immediately removed, cleaned and chopped into small pieces. The tissue is homogenized in 5× times volume of 0.05M Hepes buffer, pH 7.4. The homogenate is centrifuged at 4000 g for 10 minutes, and the supernatant is re-centrifuged at 42,000×g for 90 minutes. The resulting membrane pellet is resuspended (0.7 ml/g weight) in 0.05M Hepes, pH 7.4 and stored at […] until used. Each tube of the binding assay contains ^3H-nitrendipine (0.05-0.50 nM), buffer, membranes (0.10 ml), and test compound in a total volume of 1.0 ml. After 90 minutes at 4° C., the bound nitrendipine is separated from the unbound by filtration on Whatman GF/C filters. After rinsing, the filters are dried and counted in a liquid scintillation counter.
Non-specific binding of ^3H-nitrendipine (that amount bound in the presence of excess unlabelled nitrendipine) is subtracted from the total bound to obtain specifically bound radiolabeled nitrendipine. The amount of specifically bound nitrendipine in the presence of a test compound is compared to that amount bound in the absence of a compound. A percent displacement (or inhibition) can then be calculated.

A word on the IC50: it is the midpoint of a concentration-inhibition curve.

T1 sequence (P15381 whole entry, other chains not shown): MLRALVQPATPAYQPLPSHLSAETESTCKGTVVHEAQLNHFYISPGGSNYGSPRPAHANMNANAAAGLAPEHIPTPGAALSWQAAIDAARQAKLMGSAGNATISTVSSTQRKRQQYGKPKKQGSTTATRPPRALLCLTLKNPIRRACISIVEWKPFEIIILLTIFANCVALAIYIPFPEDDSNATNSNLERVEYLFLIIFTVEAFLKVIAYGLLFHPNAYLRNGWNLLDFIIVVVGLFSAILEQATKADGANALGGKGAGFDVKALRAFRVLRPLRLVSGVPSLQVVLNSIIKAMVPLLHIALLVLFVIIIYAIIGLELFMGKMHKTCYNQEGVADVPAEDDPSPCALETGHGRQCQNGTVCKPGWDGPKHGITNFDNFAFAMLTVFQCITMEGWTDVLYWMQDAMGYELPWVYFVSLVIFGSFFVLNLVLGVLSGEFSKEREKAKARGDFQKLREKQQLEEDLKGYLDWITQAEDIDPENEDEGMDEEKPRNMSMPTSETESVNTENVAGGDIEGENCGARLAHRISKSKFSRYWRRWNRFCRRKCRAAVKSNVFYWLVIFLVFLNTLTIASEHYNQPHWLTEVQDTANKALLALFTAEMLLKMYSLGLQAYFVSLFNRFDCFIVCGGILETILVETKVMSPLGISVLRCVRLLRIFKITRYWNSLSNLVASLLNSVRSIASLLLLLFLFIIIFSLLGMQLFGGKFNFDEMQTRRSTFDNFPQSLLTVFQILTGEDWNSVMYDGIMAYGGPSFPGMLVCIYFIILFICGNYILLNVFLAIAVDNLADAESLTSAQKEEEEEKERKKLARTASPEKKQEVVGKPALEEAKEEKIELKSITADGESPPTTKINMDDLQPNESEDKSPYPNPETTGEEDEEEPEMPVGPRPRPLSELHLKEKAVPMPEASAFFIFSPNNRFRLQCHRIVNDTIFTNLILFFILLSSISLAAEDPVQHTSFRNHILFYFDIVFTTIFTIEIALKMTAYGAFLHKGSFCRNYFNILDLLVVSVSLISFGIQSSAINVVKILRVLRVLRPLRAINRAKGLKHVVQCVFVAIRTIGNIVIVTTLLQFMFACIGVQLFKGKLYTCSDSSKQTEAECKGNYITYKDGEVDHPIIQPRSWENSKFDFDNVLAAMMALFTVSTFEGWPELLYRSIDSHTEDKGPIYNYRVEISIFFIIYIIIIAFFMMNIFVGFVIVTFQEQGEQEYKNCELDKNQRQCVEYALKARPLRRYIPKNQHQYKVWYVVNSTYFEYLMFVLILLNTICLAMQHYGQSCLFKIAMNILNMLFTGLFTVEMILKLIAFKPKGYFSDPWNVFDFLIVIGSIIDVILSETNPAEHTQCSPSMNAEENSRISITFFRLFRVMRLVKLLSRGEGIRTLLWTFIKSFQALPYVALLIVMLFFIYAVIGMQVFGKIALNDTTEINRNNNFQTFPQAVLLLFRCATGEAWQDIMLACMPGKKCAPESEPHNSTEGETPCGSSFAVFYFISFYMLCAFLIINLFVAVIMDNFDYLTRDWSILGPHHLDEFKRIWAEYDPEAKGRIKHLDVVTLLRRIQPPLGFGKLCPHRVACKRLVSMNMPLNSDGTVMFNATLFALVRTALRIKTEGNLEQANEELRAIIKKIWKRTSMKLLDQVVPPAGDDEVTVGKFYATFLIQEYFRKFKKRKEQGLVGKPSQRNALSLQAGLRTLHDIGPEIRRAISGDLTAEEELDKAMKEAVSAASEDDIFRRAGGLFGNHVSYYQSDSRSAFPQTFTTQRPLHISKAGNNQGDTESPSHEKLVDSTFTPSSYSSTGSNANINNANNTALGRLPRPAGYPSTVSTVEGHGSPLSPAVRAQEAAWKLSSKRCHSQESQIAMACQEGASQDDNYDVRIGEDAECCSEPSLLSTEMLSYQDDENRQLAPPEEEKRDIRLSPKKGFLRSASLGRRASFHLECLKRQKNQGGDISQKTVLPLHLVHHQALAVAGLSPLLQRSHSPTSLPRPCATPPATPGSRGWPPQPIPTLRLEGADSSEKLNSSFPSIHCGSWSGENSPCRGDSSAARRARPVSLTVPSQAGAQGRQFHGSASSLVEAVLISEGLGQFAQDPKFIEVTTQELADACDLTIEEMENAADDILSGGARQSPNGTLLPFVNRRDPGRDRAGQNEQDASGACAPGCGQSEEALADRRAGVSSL
T1 sequence (P13806 27-960 partner limits assumed, other chains not shown): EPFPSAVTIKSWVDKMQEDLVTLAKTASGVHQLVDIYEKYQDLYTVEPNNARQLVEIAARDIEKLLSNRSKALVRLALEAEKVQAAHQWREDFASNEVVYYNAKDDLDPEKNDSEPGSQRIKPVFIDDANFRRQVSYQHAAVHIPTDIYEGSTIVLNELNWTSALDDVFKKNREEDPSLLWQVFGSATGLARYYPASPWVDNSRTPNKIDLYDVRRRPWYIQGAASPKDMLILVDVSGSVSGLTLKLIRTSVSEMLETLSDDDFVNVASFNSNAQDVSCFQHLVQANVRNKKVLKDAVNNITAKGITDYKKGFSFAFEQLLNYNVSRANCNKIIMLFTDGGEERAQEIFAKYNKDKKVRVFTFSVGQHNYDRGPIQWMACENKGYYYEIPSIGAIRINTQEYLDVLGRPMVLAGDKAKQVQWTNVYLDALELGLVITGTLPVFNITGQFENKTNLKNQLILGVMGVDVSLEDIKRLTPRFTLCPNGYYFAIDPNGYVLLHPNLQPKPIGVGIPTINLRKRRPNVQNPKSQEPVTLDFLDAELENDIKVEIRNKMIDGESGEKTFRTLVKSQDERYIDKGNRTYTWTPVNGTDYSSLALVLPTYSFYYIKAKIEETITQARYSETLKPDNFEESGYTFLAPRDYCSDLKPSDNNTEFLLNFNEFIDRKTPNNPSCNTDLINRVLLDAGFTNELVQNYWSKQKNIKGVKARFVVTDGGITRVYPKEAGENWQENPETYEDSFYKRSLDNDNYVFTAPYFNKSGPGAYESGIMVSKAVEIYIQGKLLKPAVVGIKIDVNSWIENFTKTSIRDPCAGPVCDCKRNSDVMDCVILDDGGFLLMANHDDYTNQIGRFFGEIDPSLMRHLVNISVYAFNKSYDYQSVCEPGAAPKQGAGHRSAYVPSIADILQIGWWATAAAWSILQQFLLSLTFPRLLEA
T1 sequence (P13806 961-1106 partner limits assumed, other chains not shown): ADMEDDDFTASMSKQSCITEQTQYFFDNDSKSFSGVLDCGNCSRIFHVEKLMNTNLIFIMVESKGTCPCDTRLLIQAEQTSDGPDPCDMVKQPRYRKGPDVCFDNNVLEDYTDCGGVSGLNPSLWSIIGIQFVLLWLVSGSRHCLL

As for `CC1=C(C(=O)OCCN(C)Cc2ccccc2)[C@H](c2c(F)cccc2Cl)C2=C(CS(=O)(=O)CCS2(=O)=O)N1` (single isomer, unassigned) [Compound 3, 5H-1,4-Dithiepino[6,5-b]pyridine-8-carboxylic acid, 9-(2-chloro-6-fluorophenyl)-2,3,6,9-tetrahydro-7-methyl-2-[methyl(phenylmethyl)amino]ethyl ester 1,1,4,4-tetraoxide], the IC50 is 160 µM.

Take `CC1=C(C(=O)OCCN(C)Cc2ccccc2)C(c2c(O)cccc2Cl)C2=C(CS(=O)(=O)CCS2(=O)=O)N1` (stereo not drawn) [Compound 4, 5H-1,4-Dithiepino[6,5-b]pyridine-8-carboxylic acid, 9-(2-chloro-6-hydroxyphenyl)-2,3,6,9-tetrahydro-7-methyl-2-[methyl(phenylmethyl)amino]ethyl ester 1,1,4,4-tetraoxide]: the half-inhibitory concentration (IC50) was found to be 0.39 µM. As to `CC1=C(C(=O)OCCN(C)Cc2ccccc2)C(c2c(F)cccc2C(F)(F)F)C2=C(CS(=O)(=O)CCS2(=O)=O)N1` (stereo not drawn) [Compound 5, 5H-1,4-Dithiepino[6,5-b]pyridine-8-carboxylic acid, 9-[2-fluoro-6-(trifluoromethyl)phenyl]-2,3,6,9-tetrahydro-7-methyl-2-[methyl(phenylmethyl)amino]ethyl ester 1,1,4,4-tetraoxide], the IC50 came to 0.012 µM. The same measure for `CC1=C(C(=O)OCCN(C)Cc2ccccc2)C(c2ccccc2Cl)C2=C(CS(=O)(=O)CCS2(=O)=O)N1` (stereo not drawn) [Compound 6, 5H-1,4-Dithiepino[6,5-b]pyridine-8-carboxylic acid, 9-(2-chlorophenyl)-2,3,6,9-tetrahydro-7-methyl-2-[methyl(phenylmethyl)amino]ethyl ester 1,1,4,4-tetraoxide]: 0.045 µM; for `CC1=C(C(=O)OCCN(C)Cc2ccccc2)C(c2cccc(C(F)(F)F)c2F)C2=C(CS(=O)(=O)CCS2(=O)=O)N1` (stereo not drawn) [Compound 7, 5H-1,4-Dithiepino[6,5-b]pyridine-8-carboxylic acid, 9-[2-fluoro-3-(trifluoromethyl)phenyl]-2,3,6,9-tetrahydro-7-methyl-2-[methyl(phenylmethyl)amino]ethyl ester 1,1,4,4-tetraoxide]: 0.018 µM. The same measure for `CC1=C(C(=O)OCCN(C)Cc2ccccc2)C(c2cccc([N+](=O)[O-])c2)C2=C(CS(=O)(=O)CCS2(=O)=O)N1` (stereo not drawn) [Compound 8, 5H-1,4-Dithiepino[6,5-b]pyridine-8-carboxylic acid, 2,3,6,9-tetrahydro-7-methyl-9-(3-nitrophenyl)-2-[methyl(phenylmethyl)amino]ethyl ester 1,1,4,4-tetraoxide]: 0.043 µM. Turning to `CC1=C(C(=O)OCCN(C)Cc2ccccc2)C(c2cc(F)c(F)c(F)c2)C2=C(CS(=O)(=O)CCS2(=O)=O)N1` (stereo not drawn) [Compound 9, 5H-1,4-Dithiepino[6,5-b]pyridine-8-carboxylic acid, 2,3,6,9-tetrahydro-7-methyl-9-(3,4,5-trifluorophenyl)-2-[methyl(phenylmethyl)amino]ethyl ester 1,1,4,4-tetraoxide], the IC50 worked out at 0.013 µM. Turning to `CC1=C(C(=O)OCCN(C)Cc2cccs2)C(c2cc(F)c(F)c(F)c2)C2=C(CS(=O)(=O)CCS2(=O)=O)N1` (stereo not drawn) [Compound 10, 5H-1,4-Dithiepino[6,5-b]pyridine-8-carboxylic acid, 2,3,6,9-tetrahydro-7-methyl-9-(3,4,5-trifluorophenyl)-2-[methyl(2-thienylmethyl)amino]ethyl ester 1,1,4,4-tetraoxide], the IC50 stood at 0.024 µM. With `COC(=O)C1=C(C)NC2=C(C1c1c(F)cccc1Cl)S(=O)(=O)CCS(=O)(=O)C2` (stereo not drawn) [Compound 11, 5H-1,4-Dithiepino[6,5-b]pyridine-8-carboxylic acid, 9-(2-chloro-6-fluorophenyl)-2,3,6,9-tetrahydro-7-methyl-methyl ester 1,1,4,4-tetraoxide] the figure was 0.091 µM; with `COC(=O)C1=C(C)NC2=C(C1c1c(F)c(F)c(F)c(F)c1F)S(=O)(=O)CCS(=O)(=O)C2` (stereo not drawn) [Compound 13, 5H-1,4-Dithiepino[6,5-b]pyridine-8-carboxylic acid, 2,3,6,9-tetrahydro-7-methyl-9-(pentafluorophenyl)-methyl ester 1,1,4,4-tetraoxide], 0.027 µM. As to `COC(=O)C1=C(C)NC2=C(C1c1c(F)cccc1F)S(=O)(=O)CCS(=O)(=O)C2` (stereo not drawn) [Compound 14, 5H-1,4-Dithiepino[6,5-b]pyridine-8-carboxylic acid, 9-(2,6-difluorophenyl)-2,3,6,9-tetrahydro-7-methyl-methyl ester 1,1,4,4-tetraoxide], the half-inhibitory concentration (IC50) is 0.259 µM. For `COC(=O)C1=C(C)NC2=C(C1c1ccccc1Cl)S(=O)(=O)CCS(=O)(=O)C2` (stereo not drawn) [Compound 15, 5H-1,4-Dithiepino[6,5-b]pyridine-8-carboxylic acid, 9-(2-chlorophenyl)-2,3,6,9-tetrahydro-7-methyl-methyl ester 1,1,4,4-tetraoxide], the IC50 was 0.061 µM. With `COC(=O)C1=C(C)NC2=C(C1c1ccccc1F)S(=O)(=O)CCS(=O)(=O)C2` (stereo not drawn) [Compound 16, 5H-1,4-Dithiepino[6,5-b]pyridine-8-carboxylic acid, 9-(2-fluorophenyl)-2,3,6,9-tetrahydro-7-methyl-methyl ester 1,1,4,4-tetraoxide] the figure was 0.265 µM. Regarding `COC(=O)C1=C(C)NC2=C(C1c1cccc(C(F)(F)F)c1F)S(=O)(=O)CCS(=O)(=O)C2` (stereo not drawn) [Compound 17, 5H-1,4-Dithiepino[6,5-b]pyridine-8-carboxylic acid, 9-[2-fluoro-3-(trifluoromethyl)phenyl]-2,3,6,9-tetrahydro-7-methyl-methyl ester 1,1,4,4-tetraoxide], the IC50 amounted to 0.02 µM.

On to `COC(=O)C1=C(C)NC2=C(C1c1cccc(F)c1F)S(=O)(=O)CCS(=O)(=O)C2` (stereo not drawn) [Compound 18, 5H-1,4-Dithiepino[6,5-b]pyridine-8-carboxylic acid, 9-(2,3-difluorophenyl)-2,3,6,9-tetrahydro-7-methyl-methyl ester 1,1,4,4-tetraoxide], for which the IC50 was 0.068 µM. On to `COC(=O)C1=C(C)NC2=C(C1c1ccccc1[N+](=O)[O-])S(=O)(=O)CCS(=O)(=O)C2` (stereo not drawn) [Compound 19, 5H-1,4-Dithiepino[6,5-b]pyridine-8-carboxylic acid, 2,3,6,9-tetrahydro-7-methyl-9-(2-nitrophenyl)-methyl ester 1,1,4,4-tetraoxide], for which the IC50 was found to be 0.21 µM. Take `C=C1CS(=O)(=O)C2=C(CS1(=O)=O)NC(C)=C(C(=O)OC)C2c1cccc(C(F)(F)F)c1F` (stereo not drawn) [Compound 20, 5H-1,4-Dithiepino[6,5-b]pyridine-8-carboxylic acid, 9-[2-fluoro-3-(trifluoromethyl)phenyl]-2,3,6,9-tetrahydro-7-methyl-3-methylene-methyl ester 1,1,4,4-tetraoxide]: the IC50 is 0.021 µM. Turning to `C=C1CS(=O)(=O)C2=C(CS1(=O)=O)NC(C)=C(C(=O)OCCN(C)Cc1ccccc1)C2c1cccc(C(F)(F)F)c1F` (stereo not drawn) [Compound 21, 5H-1,4-Dithiepino[6,5-b]pyridine-8-carboxylic acid, 9-[2-fluoro-3-(trifluoromethyl)phenyl]-2,3,6,9-tetrahydro-7-methyl-3-methylene-2-[methyl(phenylmethyl)amino]ethyl ester 1,1,4,4-tetraoxide], the IC50 came to 0.038 µM.
